Data published in article PMC9099682 (2022).

Columns and labels:
[1] = test system: Pu22 (DNA, G4) TGAGGGTGGGTAGGGTGGGTAA; assay: CD spectroscopy; settings: K+ 4.5 mM, Na+ (137 mM NaCl, 10 mM Na2HPO4); PBS pH 7.4, 40 °C; 125 µM tPD, 2.5 µM DNA; CD band increase at 263 nm
[2] = test system: Pu22 (DNA, G4) TGAGGGTGGGTAGGGTGGGTAA; assay: CD melting at 265 nm; settings: K+ 4.5 mM, Na+ (137 mM NaCl, 10 mM Na2HPO4); PBS pH 7.4; 125 µM tPD, 2.5 µM DNA (50 equiv.); Tm 62 to 64 °C

- binding [1]: yes
- ΔTm [2]: +2 °C
SMILES: OC[C@H]1O[C@@H](Oc2cc(O)cc(/C=C/c3ccc(O)cc3)c2)[C@H](O)[C@@H](O)[C@@H]1O
